We go through five compounds from patent US7608407B2, “Fluorescence polarization assay for determining histidine decarboxylase activity” (Boehringer Ingelheim Pharmaceuticals, Inc., priority 2004, dated 2009).

Bounds are passed on as bounds.

The target in experiment [1] is anti-histamine antibody D22.12. Nature of the experiment: Displacement of FITC-histamine binding to the anti-histamine antibody by competitor ligand. On the set-up: species or system mice. How it is done: Triplicate determinations in a 96-well plate were performed as described in the Methods, with 6 nM FITC-histamine, 50 nM anti-histamine antibody, and the indicated concentration of competitor ligand.
(§1) In the standard assay, HDC, diluted to 90 nM in HDC Buffer plus 0.9 mM DTT and 99 μM PLP, was added to a black opaque 384-well plate in 20 μL. Test compound in HDC Buffer plus 6% DMSO or buffer alone was added to the plate in 10 μL. 36 nM FITC-histidine and 3.6 mM histidine were combined in FP Buffer and transferred to the plate in 10 μL. Finally, 90 nM […] antibody was added in 20 μL of FP Buffer. Thus, the final concentrations in the assay were: HDC 30 nM, FITC-histidine 6 nM, histidine 600 μM, anti-histamine antibody 30 nM, DMSO 1%. The plate was incubated at 37° C. for 90 minutes. The fluorescence polarization signal was read on an LJL Analyst (Molecular Devices, Sunnyvale, Calif.) with excitation at 485 nm, emission at 530 nm, a fluorescein dichroic mirror at 505 nm and G factor set to 1. A 96-well plate version of the assay, used in assay development, was performed as described above with twice the volumes indicated for 384-well plates.
We first determined the affinity of the probe for the antibody and the specificity of the interaction, both of which are crucial to constructing a robust assay in a competitive mode. […] The probe concentration was held at 6 nM and the antibody concentration varied over approximately 3 logs. […] Probe and antibody concentrations were held constant at 6 and 50 nM, respectively, while the concentrations of histamine and histidine were varied as shown.

The next experiment deals with T1, HDC (Mus musculus, UniProt P23738).
T1 sequence (P23738 1-662): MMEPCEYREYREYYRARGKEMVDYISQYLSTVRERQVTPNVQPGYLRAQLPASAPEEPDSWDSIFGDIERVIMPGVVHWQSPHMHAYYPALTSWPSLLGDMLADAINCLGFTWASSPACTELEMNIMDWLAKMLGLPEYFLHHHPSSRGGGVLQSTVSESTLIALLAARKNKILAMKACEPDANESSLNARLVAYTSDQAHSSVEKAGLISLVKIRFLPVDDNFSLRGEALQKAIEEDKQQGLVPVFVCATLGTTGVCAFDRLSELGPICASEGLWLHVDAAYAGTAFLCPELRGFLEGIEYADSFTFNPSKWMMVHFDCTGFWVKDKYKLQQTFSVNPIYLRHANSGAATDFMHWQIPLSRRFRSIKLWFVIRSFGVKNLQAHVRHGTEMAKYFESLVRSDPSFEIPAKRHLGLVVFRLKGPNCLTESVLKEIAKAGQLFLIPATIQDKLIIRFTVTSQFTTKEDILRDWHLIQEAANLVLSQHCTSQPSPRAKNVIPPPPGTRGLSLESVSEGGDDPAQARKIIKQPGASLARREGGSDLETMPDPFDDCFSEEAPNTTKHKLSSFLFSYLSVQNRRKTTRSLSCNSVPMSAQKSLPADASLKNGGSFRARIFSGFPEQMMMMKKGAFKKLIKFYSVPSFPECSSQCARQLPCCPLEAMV
The following applies: Watabe et al 1992; read-out: Reported Km; cited from earlier work.

The target of a further experiment is T2, human HDC (Homo sapiens, UniProt P19113).
T2 construct: containing the first 1431 bases (amino acid residues 1-477) of HDC; made in house; host or cells: Sf9 insect cells (baculovirus, pDEST 20)
T2 sequence (P19113 1-477 S148Q): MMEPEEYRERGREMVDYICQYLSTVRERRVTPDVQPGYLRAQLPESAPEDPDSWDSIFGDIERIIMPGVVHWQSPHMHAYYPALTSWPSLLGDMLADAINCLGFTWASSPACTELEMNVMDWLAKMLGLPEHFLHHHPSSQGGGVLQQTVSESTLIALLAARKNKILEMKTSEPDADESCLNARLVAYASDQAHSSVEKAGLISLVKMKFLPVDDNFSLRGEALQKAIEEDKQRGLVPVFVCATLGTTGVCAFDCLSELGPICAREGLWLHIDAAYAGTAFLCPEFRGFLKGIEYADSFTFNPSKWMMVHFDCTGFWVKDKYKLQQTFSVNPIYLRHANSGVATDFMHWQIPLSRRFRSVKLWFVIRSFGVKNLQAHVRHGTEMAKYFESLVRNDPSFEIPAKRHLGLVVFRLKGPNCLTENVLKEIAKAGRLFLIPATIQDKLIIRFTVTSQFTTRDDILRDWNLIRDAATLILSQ
Nature of the experiment: Histidine decarboxylase fluorescence polarization standard assay. Format: biochemical. The following applies: standard assay: 30 nM HDC, 600 μM histidine, 90 minutes at 37° C.; read-out: IC50 for inhibition of HDC. How it is done:
as §1
A general note: Polarisation of emitted light reports the rotation of a fluorescent probe.

The target of experiment [2] is anti-histamine antibody D22.12. The following applies: read-out: Kd (dissociation constant) of probe for antibody; FITC-histamine at 6 nM, antibody concentration varied over approximately 3 logs. As for the experimental part:
as §1
We first determined the affinity of the probe for the antibody and the specificity of the interaction, both of which are crucial to constructing a robust assay in a competitive mode. […] The probe concentration was held at 6 nM and the antibody concentration varied over approximately 3 logs. […]

In the case of `NCCc1c[nH]cn1` [Histamine, histamine], the IC50 (commonly the concentration that inhibits the measured activity by half) in experiment [1] (6 nM FITC-histamine, 50 nM anti-histamine antibody, read-out: IC50 for competition with the probe for antibody binding) is 135 µM. Also, in experiment [1] (FP assay), the “Selectivity for histamine over histidine” value is given as more than 100 fold.
As for `N[C@@H](Cc1c[nH]cn1)C(=O)O` [Histidine, L-Histidine], the Km – broadly, the substrate concentration at which the rate is half of its maximum – at HDC is 200 to 400 µM. In addition, the “Competition with FITC-histamine for binding to the antibody” value in experiment [1] (6 nM FITC-histamine, 50 nM antibody, over the 5 log range examined) was “unable to compete”.
With `COC(=O)C(N)Cc1c[nH]cn1` (stereo not shown) [methyl ester histidine], the IC50 on human HDC came out at 7.7 µM.
As to `N[C@@](CF)(Cc1cnc[nH]1)C(=O)O` [α-fluoromethyl histidine], the IC50 at human HDC came out at 1.4 µM.
Turning to “N-[3′,6′-dihydroxy-3-oxospiro[isobenzofuran-[(3H), 9′-[9H]xanthene-5(or 6)-yl]-N′-[2-(1H-imidazol-4-yl)ethyl]-2,4-dimethylthiourea, disodium salt [FITC-histamine]”, the Kd (in general, the free concentration of one partner at which half of the binding sites on the other are occupied at equilibrium, for simple one-to-one binding) in experiment [2] was found to be 0.0039 µM.
